Results on twelve molecules are retold here after PubChem BioAssay (NCI).

“And” between values parts separate entries of the source, which are not always exact repeats. Equal entries are not always repeated.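 Tested at 5 concentrations; 48 h exposure; 96-well plates; endpoints linearly interpolated, else capped at highest concentration. GI50 is the concentration that inhibits growth by half. TGI is the concentration that stops growth completely.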

Some test systems named below: HT29 colon; HCC-2998 colon; DU-145 prostate; M14 melanoma; 786-0 renal; CAKI-1 renal; A498 renal; SK-MEL-5 melanoma; UACC-257 melanoma; OVCAR-4 ovarian.
Assay in all cases: inhibition of tumour cell growth, NCI panel, 48 h

`O=C(O)c1ccc(NCc2nc3ccccc3[nH]2)cc1`: the GI50 in the assay on HT29 colon, with HCC-2998 colon, in the assay with DU-145 prostate, in the assay with M14 melanoma, in the assay with 786-0 renal and with CAKI-1 renal was over 100 µM throughout. In addition, the GI50 in the assay on SK-MEL-5 melanoma, in the assay on UACC-257 melanoma and in the assay with OVCAR-4 ovarian was over 100 µM each time. The TGI in the assay on HT29 colon, with HCC-2998 colon, with DU-145 prostate, with M14 melanoma, in the assay on 786-0 renal and in the assay on CAKI-1 renal was over 100 µM in each case. For the same molecule, the TGI with A498 renal, in the assay with SK-MEL-5 melanoma, in the assay on UACC-257 melanoma and in the assay on OVCAR-4 ovarian was over 100 µM throughout.

For the molecule `O=C(/C=C/c1ccco1)Nc1ncc(Cc2cccc(C(F)(F)F)c2)s1`, the GI50 is 0.0388 µM in the assay with HT29 colon; 0.179 µM in the assay on HCC-2998 colon; 0.103 µM in the assay with DU-145 prostate; 0.0572 µM with M14 melanoma; 0.163 µM in the assay with 786-0 renal; 0.0464 µM with CAKI-1 renal. Further, the GI50 is 0.0267 µM in the assay with A498 renal, 0.0512 µM in the assay on SK-MEL-5 melanoma, 3.63 µM in the assay on UACC-257 melanoma and 0.495 µM in the assay with OVCAR-4 ovarian. The TGI is over 33 µM with HT29 colon; 2.21 µM in the assay on HCC-2998 colon; over 24.3 µM with DU-145 prostate; 3.18 µM with M14 melanoma; 17.8 µM in the assay with 786-0 renal; 7.93 µM in the assay on CAKI-1 renal. For the same molecule, the TGI with A498 renal is 1.73 µM; with SK-MEL-5 melanoma, 1.81 µM; in the assay with UACC-257 melanoma, over 100 µM; in the assay on OVCAR-4 ovarian, 4.03 µM.

As to `CCOC(=O)Nc1ccc2nc(N3CCCCCC3)sc2c1`, the GI50 is 0.44 µM in the assay with HT29 colon; 7.59 µM in the assay on HCC-2998 colon; 4 µM in the assay on DU-145 prostate; 0.719 µM in the assay on M14 melanoma; 6.86 µM with 786-0 renal; 2.2 µM in the assay with CAKI-1 renal. Further, the GI50 in the assay on A498 renal was 2.1 µM; in the assay on SK-MEL-5 melanoma, 1.04 µM; with UACC-257 melanoma, 15.2 µM; in the assay on OVCAR-4 ovarian it was 23.7 µM. For the same molecule, the TGI in the assay on HT29 colon was 9.87 µM; in the assay with HCC-2998 colon, 48 µM; in the assay on DU-145 prostate, over 83.3 µM; in the assay with M14 melanoma, over 70.4 µM; with 786-0 renal it was over 100 µM; with CAKI-1 renal, over 59.5 µM. The TGI in the assay on A498 renal was 32.2 µM; with SK-MEL-5 melanoma, 15.9 µM; with UACC-257 melanoma, 97.2 µM; in the assay on OVCAR-4 ovarian, over 100 µM.

As for `C[C@]12CCCN1CC1=NNC(=O)c3cc(F)cc4[nH]c2c1c34`, the GI50 in the assay with HT29 colon was 19.2 µM; in the assay on HCC-2998 colon, 25.1 µM; in the assay on DU-145 prostate, 32.6 µM; in the assay on M14 melanoma, 18.5 µM; with 786-0 renal, 26.2 µM; in the assay on CAKI-1 renal it was 7.73 µM. Further, the GI50 in the assay with A498 renal is 13.9 µM; in the assay on SK-MEL-5 melanoma, 20.7 µM; with UACC-257 melanoma it was 25.1 µM; in the assay on OVCAR-4 ovarian it was 24.9 µM. Also, the TGI is over 100 µM in the assay with HT29 colon; 91.6 µM with HCC-2998 colon; over 100 µM in the assay on DU-145 prostate; 59.6 µM with M14 melanoma; over 100 µM in the assay with 786-0 renal; over 100 µM with CAKI-1 renal. Also, the TGI in the assay with A498 renal is 34.3 µM; in the assay on SK-MEL-5 melanoma, 53.4 µM; in the assay with UACC-257 melanoma, 73.6 µM; in the assay with OVCAR-4 ovarian, over 100 µM.

Regarding `CS(=O)(=O)c1ccc2c(c1)C(=O)c1c-2n(CCCBr)c(=O)c2cc([N+](=O)[O-])ccc12`, the GI50 was 29.5 µM in the assay on HT29 colon; 24.8 µM in the assay with HCC-2998 colon; 6.25 µM in the assay on DU-145 prostate; 7.11 µM with M14 melanoma; 6.07 µM in the assay with 786-0 renal; 16.4 µM with CAKI-1 renal. Besides, the GI50 in the assay on A498 renal was 0.127 µM; in the assay with SK-MEL-5 melanoma it was 1.91 µM; in the assay on UACC-257 melanoma, 43.7 µM; with OVCAR-4 ovarian it was 47.4 µM. Further, the TGI in the assay on HT29 colon, with HCC-2998 colon, in the assay on DU-145 prostate, in the assay on M14 melanoma, in the assay with 786-0 renal and with CAKI-1 renal was over 100 µM in each case. In addition, the TGI in the assay on A498 renal is 14.8 µM; in the assay with SK-MEL-5 melanoma, 15.8 µM; in the assay on UACC-257 melanoma it was over 100 µM; in the assay with OVCAR-4 ovarian, over 100 µM.

Consider `Nc1c(C(=O)c2ccc(C#CCN3CCOCC3)cc2)cnn1-c1ccc(F)cc1`, for which the GI50 with HT29 colon, in the assay on HCC-2998 colon, with DU-145 prostate, in the assay with M14 melanoma, with 786-0 renal and in the assay with CAKI-1 renal was over 25 µM each time. The GI50 in the assay with A498 renal, in the assay with SK-MEL-5 melanoma, in the assay with UACC-257 melanoma and in the assay on OVCAR-4 ovarian was over 25 µM in each case. Also, the TGI with HT29 colon, in the assay on HCC-2998 colon, with DU-145 prostate, with M14 melanoma, in the assay with 786-0 renal and with CAKI-1 renal was over 25 µM throughout. Also, the TGI with A498 renal, with SK-MEL-5 melanoma, with UACC-257 melanoma and in the assay on OVCAR-4 ovarian was over 25 µM throughout.

As for `Nc1nc(=S)c2ncn(C3OC(CO)C(O)C3O)c2[nH]1` (stereo not drawn), the GI50 with HT29 colon is 0.981 µM; in the assay with HCC-2998 colon, 0.7 µM; in the assay on DU-145 prostate it was 0.542 µM; in the assay on M14 melanoma it was 0.304 µM; with 786-0 renal, 0.348 µM; in the assay with CAKI-1 renal it was 0.703 µM. Moreover, the GI50 was 5.11 µM in the assay with A498 renal, 2.41 µM in the assay with SK-MEL-5 melanoma, 31.8 µM in the assay on UACC-257 melanoma and 1.86 µM with OVCAR-4 ovarian. Moreover, the TGI is over 100 µM in the assay with HT29 colon; 5 µM in the assay on HCC-2998 colon; over 100 µM with DU-145 prostate; 3.13 µM in the assay with M14 melanoma; 5.88 µM with CAKI-1 renal; over 87.6 µM in the assay with A498 renal. The figures for the TGI with SK-MEL-5 melanoma, with UACC-257 melanoma and in the assay with OVCAR-4 ovarian were 10.8 µM, over 100 µM and over 100 µM, respectively.

In the case of `COC(=O)CC1C2(C)C3=C(C)C(c4ccoc4)CC3OC2C2OC(=O)C3(C)C=CC(=O)C1(C)C23` (stereo not drawn), the TGI in the assay with HT29 colon came to 2.49 µM; in the assay with HCC-2998 colon, 2.7 µM; in the assay on DU-145 prostate, 2.06 µM; with M14 melanoma, 3.25 µM; in the assay on 786-0 renal, 2.34 µM; in the assay with CAKI-1 renal, 2.15 µM. In addition, the TGI in the assay on A498 renal came to 4.99 µM; with SK-MEL-5 melanoma it was 3.03 µM; in the assay on UACC-257 melanoma, 5.02 µM; with OVCAR-4 ovarian, 10.1 µM.

For the molecule `Cc1ccc(S(=O)(=O)OCC(=O)Nc2ccc(C(=O)O)c(O)c2)cc1`, the GI50 in the assay on HT29 colon is 38.6 µM; in the assay with HCC-2998 colon it was 41 µM; with DU-145 prostate, 26.8 µM; in the assay with M14 melanoma, 28.2 µM; in the assay on 786-0 renal, 30.5 µM; with CAKI-1 renal, 14.7 µM. Also, the GI50 in the assay on A498 renal was 36.4 µM; with SK-MEL-5 melanoma, 27 µM; with UACC-257 melanoma it was 36.7 µM; with OVCAR-4 ovarian, 26.8 µM. Also, the TGI stood at 172 µM in the assay on HT29 colon; 88.1 µM in the assay with HCC-2998 colon; 75.9 µM with DU-145 prostate; 85 µM in the assay with M14 melanoma; 96.7 µM with 786-0 renal; 91.1 µM in the assay with CAKI-1 renal. Further, the TGI is 105 µM with A498 renal, 82.6 µM in the assay with SK-MEL-5 melanoma, 200 µM with UACC-257 melanoma and 143 µM with OVCAR-4 ovarian.

In the case of `O=C(Nc1ccn(C2CC(I)C(COC(c3ccccc3)(c3ccccc3)c3ccccc3)O2)c(=O)n1)c1ccccc1` (stereo not drawn), the TGI with HT29 colon turned out to be 21.5 µM; in the assay with HCC-2998 colon, 21.5 µM; with DU-145 prostate it was 21.5 µM; with M14 melanoma, 13.8 µM; in the assay on 786-0 renal it was 15.5 µM; with CAKI-1 renal, 21.5 µM. For the same molecule, the TGI in the assay with A498 renal was found to be 13 µM; with SK-MEL-5 melanoma, 14.9 µM; in the assay with UACC-257 melanoma, 20.4 µM; in the assay with OVCAR-4 ovarian, 16.7 µM.

In the case of `C=C1C[C@@H](O)[C@@H](Br)C(C)(C)[C@]12CCC(C)(Br)C(Cl)C2` (stereo partly drawn), the GI50 in the assay on HT29 colon is 1.95 µM; with HCC-2998 colon it was 17.1 µM; with DU-145 prostate, 18.7 µM; in the assay on M14 melanoma, 17.9 µM; in the assay with 786-0 renal, 17.9 µM; in the assay with CAKI-1 renal it was 18.3 µM. For the same molecule, the GI50 in the assay on A498 renal was 18 µM; with SK-MEL-5 melanoma, 16.7 µM; in the assay on UACC-257 melanoma, 18.6 µM; in the assay with OVCAR-4 ovarian it was 15.7 µM. Besides, the TGI in the assay with HT29 colon was 50 µM and 16.4 µM; with HCC-2998 colon, > 50 µM and 30.8 µM; with DU-145 prostate, > 50 µM and 36 µM; with M14 melanoma, > 50 µM and 34.6 µM; in the assay on 786-0 renal it was > 50 µM and 33.7 µM; in the assay with CAKI-1 renal it was > 50 µM and 37.2 µM. Further, the TGI is > 50 µM and 31.9 µM with A498 renal; > 50 µM and 30.3 µM with SK-MEL-5 melanoma; > 50 µM and 34.2 µM in the assay with UACC-257 melanoma; > 50 µM and 32.9 µM in the assay with OVCAR-4 ovarian.

Take `Cc1cncc(-c2nc(NCCc3c[nH]c4ccccc34)c3ncn(C(C)C)c3n2)c1`: the GI50 in the assay on HT29 colon is 2.11 µM; with HCC-2998 colon, 4.12 µM; in the assay on DU-145 prostate it was 4.41 µM; in the assay with M14 melanoma it was 3.94 µM; in the assay with 786-0 renal, 2.01 µM; in the assay with CAKI-1 renal, 4.12 µM. The GI50 in the assay with A498 renal is 3.4 µM; in the assay with SK-MEL-5 melanoma it was 4.23 µM; with UACC-257 melanoma, 1.91 µM; in the assay on OVCAR-4 ovarian, 3.93 µM. In addition, the TGI in the assay with HT29 colon was 5.17 µM; in the assay with HCC-2998 colon, 15.1 µM; in the assay with DU-145 prostate it was 22.1 µM; with M14 melanoma it was 16.9 µM; in the assay on 786-0 renal, 6.01 µM; in the assay on CAKI-1 renal, 30.4 µM. Further, the TGI is 16.9 µM with A498 renal, 15.5 µM with SK-MEL-5 melanoma, 3.85 µM in the assay with UACC-257 melanoma and 39.6 µM in the assay on OVCAR-4 ovarian.
